12 molecules from patent US20070203749A1 (priority 2005, published 2007) can be followed below.

The target in one assay is cIAP-1-Bir3 (Homo sapiens, UniProt Q13490). Put plainly: Fluorescence polarization binding assay, purified cIAP-1 BIR-3 domain. Conditions: for Kd: BIR-3 domain; for binding to cIAP-1 and cIAP-2 relative to XIAP (fold more tightly): ratio of binding constants vs XIAP. On the procedure:
(§1) Binding constants were measured using fluorescence polarization as described in Zancta Nikolovska-Coleska et al., (2004) Analytical biochemistry, 332, 261-273. Briefly, various known concentrations of each test peptide were mixed with 5 nM fluorescently labeled peptide (AbuRPF-K(5-Fam)—NH2; FP peptide) and 40 nM of XIAP-Bir3, cIAP-1-Bir3 or cIAP-2-Bir3 in 100 μl of 0.1M Potassium Phosphate buffer, pH 7.5 containing 100 μg/ml bovine γ-globulin. These mixtures were incubated for 15 min at room temperature (approximately 22° C.). Following incubation, the polarization values (mP) were measured on a Victor^2V using a 485 nm excitation filter and a 535 nm emission filter. Kj(app) values were determined from the plot using nonlinear least-squares analysis using GraphPad Prism (Table 8).
(§2) In any event, binding to cIAP-1 and cIAP-2 or other IAPs can be determined using standard binding affinity assays, as illustrated above. […] We have utilized the specificity of this IAP binding motif in a fluorescence polarization assay to measure the binding affinities for cIAP-1 and cIAP-2 Antagonists. The fluorescence polarization assay consists of FP peptide, and the recombinant BIR3 domain of the XIAP protein. The FP peptide and mimics of the […] compete for binding to the BIR3 protein. […] If a peptide, peptidomimetic, or other small molecule being tested is a competitor, then it succeeds in displacing the FP peptide, resulting in a low mP value. Molecules that compete with the FP l peptide can be titrated and IC50 values determined (GraphPad Prism nonlinear regression curve-fitting program) by plotting mp values as the direct measure of fraction bound vs, the log of the compound concentration.
For orientation: Fluorescence polarisation rises when a labelled molecule tumbles more slowly, as on binding a larger partner.

For the next assay, the target named is XIAP-Bir3 (Homo sapiens, UniProt P98170). As to the kind of experiment: Fluorescence polarization binding assay, purified XIAP BIR-3 domain. The procedure: as §1, §2
XIAP-Bir3, sequence (P98170 241-356 limits assumed): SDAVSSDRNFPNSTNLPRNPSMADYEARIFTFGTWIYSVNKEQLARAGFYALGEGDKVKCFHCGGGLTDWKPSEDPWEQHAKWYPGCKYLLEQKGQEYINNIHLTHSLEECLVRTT
Another assay deals with cIAP-2-Bir3 (Homo sapiens, UniProt Q13489). As to the kind of experiment: Fluorescence polarization binding assay, purified cIAP-2 BIR-3 domain. On the procedure:
as §1, §2

The subject of a further assay is SK-OV-3 cells. Put plainly: MTT assay, growth inhibition of ovarian cancer cell line SK-OV-3. It counts as cell-based. Conditions: Homo sapiens; for CC50: SK-OV-3 cells, 72 hrs, concentration giving 50% cell survival, Table 8; for EC50: SK-OV-3, SKOV-3 cells, Table 10. On the procedure:
The MTT assay was described in Hansen, M. B., Nielson, S. E., and Berg, K. (1989) J. Immunol Methods 119, 203-210 and incorporated herein by reference in its entirety. Briefly, SK-OV-3 cells were seeded in 96-well plates in McCoy's medium containing 10% fetal bovine serum albumin (10,000 per well) and incubated overnight at 37° C. […] This incubation time was optimal for measuring inhibitory effects of different analogs. 50 microliters of 5 mg/mL MTT reagent was added to each well, and the plates were incubated at 37° C. for 3 hours. At the end of the incubation period, 50 microliters of DMSO was added to each well to dissolve cells, and the optical density (OD) of the wells was measured with a microplate reader (Victor^2 1420, Wallac, Finland) at 535 nm. Cell survival (CS) was calculated using the following equation: CS=(OD treated well/mean OD control wells)×100%
The EC50 (Table 1). defined as the drug concentration that results in 50% CS, was derived by calculating the point where the dose-response curve crosses the 50% CS point using GraphPad Prism.
Background: Tetrazolium assays rely on reduction of a dye to a coloured formazan, in cell work by metabolically active cells.

The next assay relates to OVCAR-3 cells. Put plainly: Synergistic toxicity with SN-38 (topoisomerase I inhibitor). It counts as cell-based. Conditions: compared between Compounds N and H.
In the next assay the target is T1, cIAP-1 (Homo sapiens, UniProt Q13490).
T1 construct: endogenous in cells; host or cells: SK-OV-3
T1 sequence (Q13490 whole entry): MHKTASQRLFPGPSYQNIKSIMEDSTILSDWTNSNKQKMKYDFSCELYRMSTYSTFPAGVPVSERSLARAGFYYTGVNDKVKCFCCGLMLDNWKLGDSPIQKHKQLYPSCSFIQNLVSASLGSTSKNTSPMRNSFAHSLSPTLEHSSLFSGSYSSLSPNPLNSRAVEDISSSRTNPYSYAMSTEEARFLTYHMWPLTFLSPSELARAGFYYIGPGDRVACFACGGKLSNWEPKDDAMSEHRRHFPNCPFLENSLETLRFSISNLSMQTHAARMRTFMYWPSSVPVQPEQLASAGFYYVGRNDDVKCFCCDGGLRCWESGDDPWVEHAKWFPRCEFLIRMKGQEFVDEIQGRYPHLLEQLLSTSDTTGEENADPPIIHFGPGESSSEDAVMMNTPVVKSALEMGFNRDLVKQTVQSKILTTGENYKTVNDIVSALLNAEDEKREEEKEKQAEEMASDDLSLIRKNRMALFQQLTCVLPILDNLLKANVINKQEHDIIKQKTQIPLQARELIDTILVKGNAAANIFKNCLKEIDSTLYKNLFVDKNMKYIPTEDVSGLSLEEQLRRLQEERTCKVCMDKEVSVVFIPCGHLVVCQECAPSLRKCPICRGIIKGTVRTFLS
Put plainly: Effect of proteasome inhibitor on IAP degradation, western blot, cIAP-1. It counts as cell-based. The note with it: SK-OV-3 cells, 20 hrs, absence of bortezomib. On the procedure: (§3) Cells were harvested after trypsinization by centrifuging at 2000 rpm for 10 min. The cell pellet was washed with PBS and lysed with RIPA to disrupt the cell membrane. The lysate after centrifugation was loaded onto a 5-20% polyacrylamide gel to separate the proteins. A Western blot was carried out using standard techniques and probed for XIAP and cIAP-1 proteins as described above.
(§4) Similarly, IAP degradation assays can be carried out by well known techniques, as illustrated above. […] Ubiquitinated protein is then escorted to the 26S proteasome where it undergoes final degradation and the ubiquitin is released and recycled. Once cIAP-1 Antagonists bind to cIAP-1, it results in perturbation of cell survival complexes or dissociation of natural ligands, signaling IAPs to either self ubiquinate or become targets for ubiquitination followed by proteasomal degradation. […] To further elucidate the machinery involved with this phenomenon, we focused on the regulation of IAP stability and asked whether or not the proteasome was involved in the degradation of cIAP-1 and XIAP.
Background: Immunoblotting shows a protein as a band on a membrane.

The next assay addresses T2, XIAP (Homo sapiens, UniProt P98170).
T2 construct: endogenous in cells; host or cells: SK-OV-3
As to the kind of experiment: Effect of proteasome inhibitor on IAP degradation, western blot, XIAP. Conditions: SK-OV-3 cells, 20 hrs, absence of bortezomib. It counts as cell-based. The procedure:
as §3, §4

The test system of the next assay is SK-OV-3^S cells. As to the kind of experiment: MTT assay, TRAIL sensitivity of parental SK-OV-3^S cells. Type of assay: cell-based. Conditions: SK-OV-3^S cells (parental). The procedure: (§5) Another unexpected observation we made was with respect to TRAIL sensitivity. IAP Antagonist-resistant […] cells (SK-OV-3^R) were generated by exposing the parental SK-OV-3 cells ([…]) to an IAP antagonist compound at a concentration that kills 95% of cells. Three days later, viable cells were transferred to a fresh flask and grown to confluency. Two weeks later, the cells were tested for IAP Antagonist sensitivity in an MTT assay as describe above and as expected, found these cells to be resistant to IAP Antagonist cytotoxicity.

The next assay relates to SK-OV-3^R cells. Put plainly: MTT assay on IAP Antagonist-resistant SK-OV-3^R cells. It counts as cell-based. The note with it: SK-OV-3^R cells (IAP Antagonist-resistant). The procedure:
as §5

Where [1] appears, read: fluorescence polarization, Table 8, read-out: cIAP-1, Kd(3pp).
Where [2] appears, read: fluorescence polarization, Table 8, read-out: XIAP, Kβ(spp).
The mark [3] stands for this setting: fluorescence polarization, Table 8, read-out: cIAP-2, Kd(apβ).
Setting [4] is: Table 10, read-out: Kd(App), c-IAP-1.
Setting [5] is: Table 10, read-out: Kd(App), XIAP.
Setting [6] is: Table 10, read-out: Kd(App), cIAP-2.

Where two headings read alike, the source gives them in different places.

In general, CC50 refers to the concentration at which the toxic effect on the cells reaches its halfway point. Low values mean greater toxicity to the cells, high ones lower toxicity to the cells. In general, EC50 refers to the concentration giving half of the maximal effect. Higher therefore signals lower potency in that assay.

cIAP-1-Bir3, sequence (Q13490 253-363 limits assumed): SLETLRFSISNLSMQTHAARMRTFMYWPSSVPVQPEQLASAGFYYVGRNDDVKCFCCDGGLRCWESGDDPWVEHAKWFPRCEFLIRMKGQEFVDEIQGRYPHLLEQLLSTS
cIAP-2-Bir3, sequence (Q13489 238-349 limits assumed): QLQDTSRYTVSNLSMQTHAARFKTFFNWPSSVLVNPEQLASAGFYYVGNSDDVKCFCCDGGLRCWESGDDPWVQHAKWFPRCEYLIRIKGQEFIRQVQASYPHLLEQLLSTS
T2 sequence (P98170 whole entry): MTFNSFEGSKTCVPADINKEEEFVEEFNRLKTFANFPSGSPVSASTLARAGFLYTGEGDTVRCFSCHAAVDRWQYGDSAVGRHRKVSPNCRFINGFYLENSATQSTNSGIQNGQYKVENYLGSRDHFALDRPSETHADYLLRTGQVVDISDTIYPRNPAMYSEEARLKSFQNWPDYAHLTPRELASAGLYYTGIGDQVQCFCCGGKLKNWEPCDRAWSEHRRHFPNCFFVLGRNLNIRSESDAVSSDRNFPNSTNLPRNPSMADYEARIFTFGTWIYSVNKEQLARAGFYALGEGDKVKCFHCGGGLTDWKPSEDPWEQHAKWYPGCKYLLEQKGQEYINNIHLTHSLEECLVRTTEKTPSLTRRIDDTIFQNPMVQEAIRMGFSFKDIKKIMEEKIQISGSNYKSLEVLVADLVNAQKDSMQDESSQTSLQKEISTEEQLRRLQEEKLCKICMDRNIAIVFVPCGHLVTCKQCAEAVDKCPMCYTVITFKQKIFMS

On to `CCC(C)[C@H](NC(=O)[C@H](C)NC)C(=O)N1CCC[C@H]1Cc1c2n(c3ccc(F)cc13)CCn1c-2c(C[C@@H]2CCCN2C(=O)[C@@H](NC(=O)[C@H](C)NC)C(C)CC)c2cc(F)ccc21` (some centres unmarked) [A], for which the results for the Kd at cIAP-1-Bir3 (setting [1]), on XIAP-Bir3 (setting [2]) and on cIAP-2-Bir3 (setting [3]) were 0.5 nM, 10 nM and 14 nM, respectively. Besides, the CC50 in the assay with SK-OV-3 cells is 0.0002 µM.
In the case of `CNC(C)C(=O)NC(C(=O)N1CC(OC(C)=O)CC1Cc1c[nH]c2ccccc12)C(C)C` (centres unmarked) [Compound H], the Kd on cIAP-1-Bir3 (setting [4]) was 1 nM; at XIAP-Bir3 (setting [5]), 117 nM; on XIAP-Bir3 (setting [2]), 120 nM; at cIAP-2-Bir3 (setting [6]), 46 nM. Also, the “binding to cIAP-1 and cIAP-2 relative to XIAP (fold more tightly)” value on cIAP-1-Bir3 was 117 fold. In the assay on SK-OV-3 cells, this molecule came in with an EC50 of 7 nM. Also, in the assay on SK-OV-3 cells, half-maximal cytotoxicity (CC50) was put at 0.007 µM. Also, in the assay on OVCAR-3 cells, the “synergistic toxicity with SN-38, synergistic volume” value is listed as “comparable”.
For the molecule `CNC(C)C(=O)NC(C(=O)N1CCCC1Cc1c[nH]c2ccc(C)cc12)C(C)O` (centres unmarked) [Compound K], the Kd on cIAP-1-Bir3 (setting [1]) was 8 nM; at XIAP-Bir3 (setting [2]), 310 nM; on cIAP-2-Bir3 (setting [3]), 6 nM. This molecule also came in with a cytotoxic concentration (CC50) with SK-OV-3 cells of 0.002 µM.
As for `CC(C)C(NC(=O)CN)C(=O)N1CC(Oc2ccccc2)CC1Cc1coc2ccccc12` (centres unmarked) [D], the Kd on cIAP-1-Bir3 (setting [1]) is 17 nM; on XIAP-Bir3 (setting [2]), 160 nM; on cIAP-2-Bir3 (setting [3]), 33 nM. This molecule also displayed a 50% cytotoxic concentration (CC50) with SK-OV-3 cells of 0.043 µM.
In the case of `CNC(C)C(=O)NC(C(=O)N1CCCC1Cc1c(-c2ccc(C(=O)OC)cc2)n(CCOCCOCCOC)c2cc(F)ccc12)C(C)(C)C` (centres unmarked) [E], the Kd on cIAP-1-Bir3 (setting [1]) came to 16 nM; at XIAP-Bir3 (setting [2]), 90 nM; at cIAP-2-Bir3 (setting [3]), 8 nM. The CC50 in the assay with SK-OV-3 cells was 0.046 µM.
In the same order, the values of `CNC(C)C(=O)NC(C(=O)N1CCCC1Cc1c(-c2ccc(F)cc2)n(CCOCCOCCOC)c2cc(F)ccc12)C(C)(C)C` (centres unmarked) [F] are 26 nM, 820 nM, 120 nM and 0.079 µM.
For `CNC(C)C(=O)NC(C(=O)N1CCCC1Cc1c(-c2ccc(N3CCOCC3)cc2)n(CCOCCOCCOC)c2cc(F)ccc12)C(C)(C)C` (centres unmarked) [G] the same measures were 130 nM, 400 nM, 180 nM and 0.28 µM.
For `CNC(C)C(=O)NC(C(=O)N1CC(OC(C)=O)CC1Cc1c[nH]c2ccccc12)C(C)(C)C` (centres unmarked) [I], the results for the Kd on cIAP-1-Bir3 (setting [1]), on XIAP-Bir3 (setting [2]) and at cIAP-2-Bir3 (setting [3]) were 72 nM, 200 nM and 50 nM, respectively. Further, the 50% cytotoxic concentration (CC50) with SK-OV-3 cells was found to be 0.004 µM.
As for `CNC(C)C(=O)NC(C(=O)N1CC(OC(C)=O)CC1Cc1c[nH]c2ccccc12)C(C)O` (centres unmarked) [J], the Kd at cIAP-1-Bir3 (setting [1]) came to 53 nM; at XIAP-Bir3 (setting [2]), 460 nM; at cIAP-2-Bir3 (setting [3]), 26 nM. Further, half-maximal cytotoxicity in the assay on SK-OV-3 cells (CC50) was put at 0.008 µM.
In the case of `CNC(C)C(=O)NC(C(=O)N1CC(O)CC1Cc1c(-c2ccc(-c3[nH]c4ccccc4c3CC3CC(O)CN3C(=O)C(NC(=O)C(C)NC)C(C)(C)C)cc2)[nH]c2ccccc12)C(C)(C)C` (centres unmarked) [N], the results for the Kd at cIAP-1-Bir3 (setting [4]), at XIAP-Bir3 (setting [5]) and at cIAP-2-Bir3 (setting [6]) were 1 nM, 1 nM and 6 nM, respectively. The “binding to cIAP-1 and cIAP-2 relative to XIAP (fold more tightly)” value on cIAP-1-Bir3 is “comparable affinity”. For the same molecule, the EC50 in the assay on SK-OV-3 cells turned out to be 7 nM. Also, the “synergistic toxicity with SN-38, synergistic volume” value in the assay with OVCAR-3 cells was “comparable”.
Consider `CN[C@@H](C)C(=O)N[C@H](C(=O)N1CCC[C@H]1Cc1c(-c2ccc(-c3c(C[C@@H]4CCCN4C(=O)[C@@H](NC(=O)[C@H](C)NC)C(C)(C)C)c4ccc(F)cc4n3CCO)cc2)n(CCO)c2cc(F)ccc12)C(C)(C)C` [Q], for which the “cIAP-1 protein level by western blot” value on cIAP-1 was “complete disappearance”. In addition, the “XIAP protein level by western blot” value at XIAP is given as “complete disappearance”.

B1: TRAIL: tumor necrosis factor-related apoptosis inducing ligand, member of the TNF superfamily that induces apoptosis through death receptors (protein, UniProt P50591 1-281, looked up)
Tumor necrosis factor ligand …: MAMMEVQGGPSLGQTCVLIVIFTVLLQSLCVAVTYVYFTNELKQMQDKYSKSGIACFLKEDDSYWDPNDEESMNSPCWQVKWQLRQLVRKMILRTSEETISTVQEKQQNISPLVRERGPQRVAAHITGTRGRSNTLSSPNSKNEKALGRKINSWESSRSGHSFLSNLHLRNGELVIHEKGFYYIYSQTYFRFQEEIKENTKNDKQMVQYIYKYTSYPDPILLMKSARNSCWSKDAEYGLYSIYQGGIFELKENDRIFVSVTNEHLIDMDHEASFFGAFLVG
B1: the “TRAIL sensitivity in MTT assay” value in the assay on SK-OV-3^S cells is recorded as “resistant to TRAIL”; in the assay with SK-OV-3^R cells, “sensitive to TRAIL”.
